Source: patent US20230287003A1, “BCL6 INHIBITORS” (Cancer Research Technology Limited, priority 2018, published 2023)

Key:
[1] = molecular target: human BCL6 BTB domain (Trx-6×His-BCL6) / BCOR-AF633 peptide (Homo sapiens (Human), UniProt P41182); test: HTRF assay; assay type: binding; conditions: 1 nM Trx-6×His-BCL6, 300 nM BCOR-AF633 peptide, 2 hours incubation
[2] = molecular target: BCL6-NCOR2(SMRT) corepressor protein-protein interaction (Homo sapiens (Human), UniProt P41182); test: NanoBRET cell assay; assay type: cell-based; conditions: for IC50: read-out: NanoBRET cell avg pIC50 (converted); for NanoBRET cell avg pIC50: HEK293T cells co-transfected with BCL6-nanoLuc and NCOR2-HaloTag, 6 hr incubation
Source text: At 20 hr post-transfection, cells were collected, washed with PBS, and exchanged into media containing phenol red-free OptiMEM+4% FBS (Life Technology).

| IC50 ([1]; HTRF avg pIC50 (1 nM)) [nM] | Compound | HTRF avg pIC50 (1 nM) [1] | IC50 [2] [nM] | NanoBRET cell avg pIC50 [2] |
| --- | --- | --- | --- | --- |
| – | O=c1c2c(c3cc(Nc4nc(N5C6CCC5COC6)ncc4Cl)ccc3n1CC1CC1)N[C@@H](C1CC1)CCO2 [Example 5r, (R)-10-((2-(3-oxa-8-azabicyclo[3.2.1]octan-8-yl)-5-chloropyrimidin-4-yl)amino)-2-cyclopropyl-7-(cyclopropylmethyl)-1,2,3,4-tetrahydro-[1,4]oxazepino[2,3-c]quinolin-6(7H)-one] | 7.41 | 43.7 | – |
| – | Cn1c(=O)c2c(c3cc(Nc4nc(N5CCC(F)(F)CC5)ncc4Cl)cnc31)N[C@@H](C1CC1)CCO2 [Example 5s, (R)-10-((5-chloro-2-(4,4-difluoropiperidin-1-yl)pyrimidin-4-yl)amino)-2-cyclopropyl-7-methyl-1,2,3,4-tetrahydro-[1,4]oxazepino[2,3-c][1,8]naphthyridin-6(7H)-one] | 7.13 | 234 | – |
| – | O=c1c2c(c3cc(Nc4nc(N5C6COCC5CC(O)C6)ncc4Cl)ccc3n1CC1CC(F)(F)C1)N[C@@H](C1CC1)CCO2 (stereo partly drawn) [Example 5u, (R)-10-((5-chloro-2-((1R,5S,7S)-7-hydroxy-3-oxa-9-azabicyclo[3.3.1]nonan-9-yl)pyrimidin-4-yl)amino)-2-cyclopropyl-7-((3,3-difluorocyclobutyl)methyl)-1,2,3,4-tetrahydro-[1,4]oxazepino[2,3-c]quinolin-6(7H)-one] | 8.08 | 28.8 | – |
| – | C[C@H]1COC(=O)c2c(c3cc(Nc4cc(OC5CCOCC5)ncc4Cl)ccc3n(C)c2=O)N1 [Example 7a] | 6.72 | 19100 | – |
| – | C[C@@H]1CN(c2ncc(Cl)c(Nc3ccc4c(c3)c3c(c(=O)n4C)C(=O)OC[C@H](C)N3)n2)C[C@H](C)O1 [Example 8a, (S)-10-((5-chloro-2-((2S,6R)-2,6-dimethylmorpholino)pyrimidin-4-yl)amino)-2,7-dimethyl-2,3-dihydro-[1,4]oxazepino[6,5-c]quinoline-5,6(1H,7H)-dione] | 6.97 | 9550 | – |
| – | C[C@H]1COC(=O)c2c(c3cc(Nc4nc(N5C6CCCC5CC6)ncc4Cl)ccc3n(C)c2=O)N1 [Example 8b, (2S)-10-((2-(8-azabicyclo[3.2.1]octan-8-yl)-5-chloropyrimidin-4-yl)amino)-2,7-dimethyl-2,3-dihydro-[1,4]oxazepino[6,5-c]quinoline-5,6(1H,7H)-dione] | 6.85 | 2190 | – |
| – | C[C@H]1COC(=O)c2c(c3cc(Nc4nc(N5C6CCC5CC(F)(F)C6)ncc4Cl)ccc3n(C)c2=O)N1 [Example 8f, (2S)-10-((5-chloro-2-(3,3-difluoro-8-azabicyclo[3.2.1]octan-8-yl)pyrimidin-4-yl)amino)-2,7-dimethyl-2,3-dihydro-[1,4]oxazepino[6,5-c]quinoline-5,6(1H,7H)-dione] | 6.67 | 6920 | – |
| – | CN(C)C(=O)C1CCN(c2ncc(Cl)c(Nc3ccc4c(c3)c3c(c(=O)n4C)C(=O)OC[C@H](C4CC4)N3)n2)CC1 [Example 8m, (S)-1-(5-chloro-4-((2-cyclopropyl-7-methyl-5,6-dioxo-1,2,3,5,6,7-hexahydro-[1,4]oxazepino[6,5-c]quinolin-10-yl)amino)pyrimidin-2-yl)-N,N-dimethylpiperidine-4-carboxamide] | 6.28 | 31600 | – |
| – | Cn1c(=O)c2c(c3cc(Nc4nc(N5CCC(F)(F)CC5)ncc4Cl)ccc31)NC(C1CC1)COC2=O (centres unmarked) [Example 8o, 10-((5-chloro-2-(4,4-difluoropiperidin-1-yl)pyrimidin-4-yl)amino)-2-cyclopropyl-7-methyl-2,3-dihydro-[1,4]oxazepino[6,5-c]quinoline-5,6(1H,7H)-dione] | 6.43 | 9330 | – |
| – | Cn1c(=O)c2c(c3cc(Nc4ccnc(Cl)c4C#N)ccc31)N[C@@H](C1CC1)COC2 [Example 9b, (S)-2-chloro-4-((2-cyclopropyl-7-methyl-6-oxo-1,2,3,5,6,7-hexahydro-[1,4]oxazepino[6,5-c]quinolin-10-yl)amino)nicotinonitrile] | 6.57 | 2000 | – |
| – | Cn1c(=O)c2c(c3cc(Nc4nc(N5C6COCC5CC(O)C6)ncc4Cl)ccc31)NC(C1CC1)C(F)(F)CO2 [Example 11a, 10-((5-chloro-2-((1R,5S,7s)-7-hydroxy-3-oxa-9-azabicyclo[3.3.1]nonan-9-yl)pyrimidin-4-yl)amino)-2-cyclopropyl-3,3-difluoro-7-methyl-1,2,3,4-tetrahydro-[1,4]oxazepino[2,3-c]quinolin-6(7H)-one] | 8.81 | 5.01 | – |
| – | Cn1c(=O)c2c(c3cc(Nc4nc(N5C6COCC5CC(O)C6)ncc4Cl)cnc31)N[C@@H](C1CC1)CCO2 (stereo partly drawn) [Example 11b, (R)-10-((5-chloro-2-((1R,5S,7S)-7-hydroxy-3-oxa-9-azabicyclo[3.3.1]nonan-9-yl)pyrimidin-4-yl)amino)-2-cyclopropyl-7-methyl-1,2,3,4-tetrahydro-[1,4]oxazepino[2,3-c][1,8]naphthyridin-6(7H)-one] | 8.16 | 32.4 | – |
| – | Cn1c(=O)c2c(c3cc(Nc4nc(N5C6COCC5CC(O)C6)ncc4Cl)ccc31)N[C@@H](C1CC1)C(F)(F)CO2 (stereo partly drawn) [Example 11c, (S)-10-((5-chloro-2-((1R,5S,7R)-7-hydroxy-3-oxa-9-azabicyclo[3.3.1]-nonan-9-yl)pyrimidin-4-yl)amino)-2-cyclopropyl-3,3-difluoro-7-methyl-1,2,3,4-tetrahydro-[1,4]oxazepino[2,3-c]quinolin-6(7H)-one] | 8.93 | – | 8.19 |
| – | CN1CCN(c2ncc(Cl)c(Nc3ccc4c(c3)c3c(c(=O)n4C)OCC(F)(F)[C@H](C4CC4)N3)n2)CC1=O [Example 12a, (S)-10-((5-chloro-2-(4-methyl-3-oxopiperazin-1-yl)pyrimidin-4-yl)amino)-2-cyclopropyl-3,3-difluoro-7-methyl-1,2,3,4-tetrahydro-[1,4]oxazepino[2,3-c]quinolin-6(7H)-one] | 8.82 | 18.6 | – |
| – | CN1CCN(c2ncc(Cl)c(Nc3ccc4c(c3)c3c(c(=O)n4C)OCC[C@H](C4CC4)N3)n2)CC1=O [Example 12b, (R)-10-((5-chloro-2-(4-methyl-3-oxopiperazin-1-yl)pyrimidin-4-yl)amino)-2-cyclopropyl-7-methyl-1,2,3,4-tetrahydro-[1,4]oxazepino[2,3-c]quinolin-6(7H)-one] | 7.80 | 60.3 | – |
| – | Cn1c(=O)c2c(c3cc(Nc4nc(N5C6CCC5CC(O)C6)ncc4Cl)ccc31)N[C@@H](C1CC1)CCO2 (stereo partly drawn) [Example 12f, (R)-10-((5-chloro-2-((1R,3R,5S)-3-hydroxy-8-azabicyclo[3.2.1]octan-8-yl)pyrimidin-4-yl)amino)-2-cyclopropyl-7-methyl-1,2,3,4-tetrahydro-[1,4]oxazepino[2,3-c]quinolin-6(7H)-one] | 7.96 | 295 | – |
| – | Cn1c(=O)c2c(c3cc(Nc4nc(N5CC6CCC(C5)O6)ncc4Cl)ccc31)N[C@@H](C1CC1)CCO2 [Example 12g, (R)-10-((2-(8-oxa-3-azabicyclo[3.2.1]octan-3-yl)-5-chloropyrimidin-4-yl)amino)-2-cyclopropyl-7-methyl-1,2,3,4-tetrahydro-[1,4]oxazepino[2,3-c]quinolin-6(7H)-one] | 7.54 | 776 | – |
| – | Cn1c(=O)c2c(c3cc(Nc4nc(N5C6COCC5CC(C)(O)C6)ncc4Cl)ccc31)N[C@@H](C1CC1)CCO2 (stereo partly drawn) [Example 12h, (R)-10-((5-chloro-2-((1R,5S,7S)-7-hydroxy-7-methyl-3-oxa-9-azabicyclo[3.3.1]nonan-9-yl)pyrimidin-4-yl)amino)-2-cyclopropyl-7-methyl-1,2,3,4-tetrahydro-[1,4]oxazepino[2,3-c]quinolin-6(7H)-one] | 7.93 | 145 | – |
| – | CN1CC2CCC(C1)N2c1ncc(Cl)c(Nc2ccc3c(c2)c2c(c(=O)n3C)OCC[C@H](C3CC3)N2)n1 [Example 12i, (R)-10-((5-chloro-2-(3-methyl-3,8-diazabicyclo[3.2.1]octan-8-yl)pyrimidin-4-yl)amino)-2-cyclopropyl-7-methyl-1,2,3,4-tetrahydro-[1,4]oxazepino[2,3-c]quinolin-6(7H)-one] | 7.81 | 148 | – |
| – | Cn1c(=O)c2c(c3cc(Nc4nc(N5C6CCC5CS(=O)(=O)C6)ncc4Cl)ccc31)N[C@@H](C1CC1)CCO2 [Example 12j, (R)-10-((5-chloro-2-(3,3-dioxido-3-thia-8-azabicyclo[3.2.1]octan-8-yl)pyrimidin-4-yl)amino)-2-cyclopropyl-7-methyl-1,2,3,4-tetrahydro-[1,4]oxazepino[2,3-c]quinolin-6(7H)-one] | 7.78 | 234 | – |
| 2.63 | Cn1c(=O)c2c(c3cc(Nc4nc(N5CC6CCC(C5)O6)ncc4Cl)ccc31)N[C@@H](C1CC1)C(F)(F)CO2 [Example 12u, (S)-10-((2-(8-oxa-3-azabicyclo[3.2.1]octan-3-yl)-5-chloropyrimidin-4-yl)amino)-2-cyclopropyl-3,3-difluoro-7-methyl-1,2,3,4-tetrahydro-[1,4]oxazepino[2,3-c]quinolin-6(7H)-one] | – | – | 7.83 |
| – | Cn1c(=O)c2c(c3cc(Nc4nc(N5C6CCC5COC6)ncc4Cl)ccc31)N[C@@H](C1CC1)C(F)(F)CO2 [Example 12v, (S)-10-((2-(3-oxa-8-azabicyclo[3.2.1]octan-8-yl)-5-chloropyrimidin-4-yl)amino)-2-cyclopropyl-3,3-difluoro-7-methyl-1,2,3,4-tetrahydro-[1,4]oxazepino[2,3-c]quinolin-6(7H)-one] | 8.86 | 8.32 | – |
